In patent publication US20210213104A1, “GLUCAGON AND GLP-1 CO-AGONISTS FOR THE TREATMENT OF CHRONIC KIDNEY DISEASE AND DIABETIC KIDNEY DISEASE IN TYPE 2 DIABETES” (MEDIMMUNE LIMITED, priority 2020, published 2021):

Tests used:
[1] = Phase 2a: pharmacokinetics in plasma (LC/MS-MS); format: in vivo, human
Experimental: Blood was collected to evaluate to pharmacokinetics (PK) of Cotadutide in plasma. The PK was measured using a validated liquid chromatography-tandem mass spectrometry (LC/MS-MS) method.
Pharmacokinetic characterization of Cotadutide at 300 μg was obtained using full PK profiles collected during the last day of dosing at 300 μg (Day 32). Additional Ctrough concentrations were collected through the study duration to check exposure.

[2] = tested on: subjects with T2DM and renal impairment; assay: Phase 2a: eGFR (CKD-EPI equation); format: in vivo, human; conditions: Day 33 / after 32 days
Excerpt: Inclusion criteria: • Male and female subjects, aged ≥18 years and <85 years at screening; • Body mass index (BMI) between 25 kg/m^2 and 40 kg/m^2 (inclusive) at screening; • HbA1c range of 6.5% to 10.5% (inclusive) at the time of screening; • Diagnosed with T2DM with glucose control managed with any insulin and/or oral therapy combination where no significant dose changes of oral therapy of more than 50% had occurred in the 3 months prior to screening (at least 50% of the subject N=20) enrolled were required to have been taking insulin at a total daily dose of ≥20 units); • Renal impairment with eGFR ≥30 and <60 mL/min/1.73 m^2 at screening. Approximately 16 subjects (40%) were required to have a screening eGFR ≥45 and <60 mL/min/1.73 m^2 (in order to ensure subjects at both ends of the moderate renal impairment spectrum were adequately represented). eGFR was determined by the chronic kidney disease-epidemiology collaboration (CKD-EPI) equation. (eGFR=141×min(SCr/κ, 1)^α×max (SCr/κ, 1)^[…]^Age×1.018 [if female]×1.159 [if Black]; wherein SCr (standardized serum creatinine)=mg/dL, κ=0.7 (females) or 0.9 (males), α=−0.329 (females) or −0.411 (males), min=indicates the minimum of SCr/κ or 1, max=indicates the maximum of SCr/κ or 1, and age=years)

Work on `CCCCCCCCCCCCCCCC(=O)N[C@@H](CCC(=O)NCCCC[C@H](NC(=O)[C@H](CC(=O)O)NC(=O)[C@H](CO)NC(=O)[C@@H](NC(=O)[C@H](Cc1ccccc1)NC(=O)[C@@H](NC(=O)CNC(=O)[C@H](CCC(N)=O)NC(=O)[C@H](CO)NC(=O)[C@@H](N)Cc1c[nH]cn1)[C@@H](C)O)[C@@H](C)O)C(=O)N[C@@H](CO)C(=O)N[C@@H](CCC(=O)O)C(=O)N[C@@H](Cc1ccc(O)cc1)C(=O)N[C@@H](CC(C)C)C(=O)N[C@@H](CC(=O)O)C(=O)N[C@@H](CO)C(=O)N[C@@H](CCC(=O)O)C(=O)N[C@@H](CCCNC(=N)N)C(=O)N[C@@H](C)C(=O)N[C@@H](CCCNC(=N)N)C(=O)N[C@@H](CC(=O)O)C(=O)N[C@@H](Cc1ccccc1)C(=O)N[C@H](C(=O)N[C@@H](C)C(=O)N[C@@H](Cc1c[nH]c2ccccc12)C(=O)N[C@@H](CC(C)C)C(=O)N[C@@H](CCC(=O)O)C(=O)N[C@@H](C)C(=O)NCC(=O)NCC(=O)O)C(C)C)C(=O)O` [Cotadutide] yielded an AUC ([1]; human, plasma, 300 ug, Day 32, 300 μg SC, geometric mean, N = 16) of 286 ng·h/mL, a Cmax ([1]; human, plasma, 300 ug, Day 32, 300 μg SC, geometric mean, N = 18) of 16.9 ng/mL and a Tmax ([1]; human, plasma, 300 ug, Day 32, 300 μg SC, median, N = 18) of 5.6 h. The “PK linearity for Ctrough” value ([1]; repeat daily SC doses 50 to 300 μg) was “linear PK”, the “change in eGFR from baseline to end of dosing vs placebo” value [2] was “No statistically significant difference” and the “change in eGFR from baseline to end of dosing vs placebo” value ([2]; listed as cotadutide) was “no significant changes”.
